Results published in patent US20250195521A1 (Revolution Medicines, Inc., priority 2020, published 2025).
pEC50, pIC50: −log10 of the molar value.

Test system: Capan-1 cells (K-Ras G12V)
Test: CellTiter-Glo cell viability, Capan-1
Format: cell-based, human
Details: Homo sapiens, CAPAN-1, 120 h, K-Ras G12V, 5-day treatment; read-out: Capan-1 Cell Viability IC50
Experimental: Note—The following protocol describes a procedure for monitoring cell viability of K-Ras mutant cancer cell lines in response to a compound of the invention. Other RAS isoforms may be employed, though the number of cells to be seeded will vary based on cell line used.
Test compounds (132.5 nl) were directly dispensed into the assay plates containing cells. […] On day 5, assay plates and their contents were equilibrated to room temperature for approximately 30 minutes. […] Luminescence was measured using the PerkinElmer Enspire. Data were normalized by the following: (Sample signal/Avg. DMSO)*100. The data were fit using a four-parameter logistic fit.

Row | SMILES | pIC50
1 | CCn1c(-c2cccnc2[C@H](C)OC)c2c3cc(ccc31)-c1cc(O)cc(c1)C[C@H](NC(=O)[C@H](C(C)C)N(C)C(=O)[C@@H]1C[C@H]1C)C(=O)N1CCC[C@H](N1)C(=O)OCC(C)(C)C2 [Compound A147] | 6.00 to 7.00

Target: KRAS G12D (Homo sapiens (Human), UniProt P01116+P62937, G12D)
Sequence (P01116 other isoform, or with tags, fused parts or gaps G12D): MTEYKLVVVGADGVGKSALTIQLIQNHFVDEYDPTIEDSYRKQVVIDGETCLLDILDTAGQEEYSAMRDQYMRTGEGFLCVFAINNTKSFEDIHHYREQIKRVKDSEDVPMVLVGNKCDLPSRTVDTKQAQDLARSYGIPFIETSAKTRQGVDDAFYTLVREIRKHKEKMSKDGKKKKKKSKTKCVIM
Sequence (P62937 whole entry): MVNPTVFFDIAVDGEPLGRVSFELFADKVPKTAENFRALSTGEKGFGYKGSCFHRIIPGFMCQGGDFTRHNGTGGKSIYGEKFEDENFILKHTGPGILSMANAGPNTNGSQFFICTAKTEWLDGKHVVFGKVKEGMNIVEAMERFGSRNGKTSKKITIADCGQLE
Test: Ras-Raf disruption/FRET/MOA assay (BRAF RBD, Cyclophilin A)
Format: biochemical
Details: read-out: KRAS G12D FRET IC50
Experimental: (§1) Compound is present in plate wells as a 10-point 3-fold dilution series starting at a final concentration of 30 μM. After incubation at 25° C. for 3 hours, a mixture of Anti-His Eu—W1024 and anti-GST allophycocyanin is then added to assay sample wells at final concentrations of 10 nM and 50 nM, respectively, and the reaction incubated for an additional 1.5 hours. […] Compounds that facilitate disruption of a Ras: RAF complex are identified as those eliciting a decrease in the TR-FRET ratio relative to DMSO control wells.
(§2) Disruption of B-Raf Ras-Binding Domain (BRAF^RBD) Interaction with K-Ras by Compounds of the Invention (Also Called a FRET Assay or an MOA Assay)
(§3) Note—The following protocol describes a procedure for monitoring disruption of K-Ras G12C (GMP-PNP) binding to BRAF^RBD by a compound of the invention. This protocol may also be executed substituting other Ras proteins or nucleotides.
(§4) The purpose of this biochemical assay was to measure the ability of test compounds to facilitate ternary complex formation between a nucleotide-loaded K-Ras isoform and Cyclophilin A; the resulting ternary complex disrupts binding to a BRAF^RBD construct, inhibiting K-Ras signaling through a RAF effector. Data is reported as IC50 values.
(§5) In assay buffer containing 25 mM HEPES pH 7.3, 0.002% Tween20, 0.1% BSA, 100 mM NaCl and 5 mM MgCl2, tagless Cyclophilin A, His6-K-Ras-GMPPNP, and GST-BRAF^RBD were combined in a 384-well assay plate at final concentrations of 25 μM, 12.5 nM and 50 nM, respectively. Compound was present in plate wells as a 10-point 3-fold dilution series starting at a final concentration of 30 μM. After incubation at 25° C. for 3 hours, a mixture of Anti-His Eu—W1024 and anti-GST allophycocyanin was then added to assay sample wells at final concentrations of 10 nM and 50 nM, respectively, and the reaction incubated for an additional 1.5 hours. […] Compounds that facilitate disruption of a K-Ras: RAF complex were identified as those eliciting a decrease in the TR-FRET ratio relative to DMSO control wells.

Row | SMILES | pIC50
2 | CCn1c(-c2cccnc2[C@H](C)OC)c2c3cc(ccc31)-c1cc(O)cc(c1)C[C@H](NS(=O)(=O)CC1CCC3(CNC3)C1)C(=O)N1CCC[C@H](N1)C(=O)OCC(C)(C)C2 (stereo partly shown) [Compound A188] | < 5.00

Target: KRAS G12V (Homo sapiens (Human), UniProt P01116+P62937, G12V)
Sequence (P01116 other isoform, or with tags, fused parts or gaps G12V): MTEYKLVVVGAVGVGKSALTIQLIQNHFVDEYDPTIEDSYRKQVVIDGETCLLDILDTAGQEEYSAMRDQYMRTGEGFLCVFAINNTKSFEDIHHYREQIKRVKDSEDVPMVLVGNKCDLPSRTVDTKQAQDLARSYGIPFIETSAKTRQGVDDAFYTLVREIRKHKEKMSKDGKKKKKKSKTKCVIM
Sequence (P62937 whole entry): as the sequence (P62937 whole entry) above
Test: as above
Format: biochemical
Details: read-out: KRAS G12V FRET IC50
Experimental: as §1, §2, §3, §4, §5

Row | SMILES | pIC50
3 | CCn1c(-c2cccnc2[C@H](C)OC)c2c3cc(ccc31)-c1cc(O)cc(c1)C[C@H](NS(=O)(=O)CC1CCC3(CNC3)C1)C(=O)N1CCC[C@H](N1)C(=O)OCC(C)(C)C2 (stereo partly shown) [Compound A188] | < 5.00

Target: KRAS G13C (Homo sapiens (Human), UniProt P01116+P62937, G13C)
Sequence (P01116 other isoform, or with tags, fused parts or gaps G13C): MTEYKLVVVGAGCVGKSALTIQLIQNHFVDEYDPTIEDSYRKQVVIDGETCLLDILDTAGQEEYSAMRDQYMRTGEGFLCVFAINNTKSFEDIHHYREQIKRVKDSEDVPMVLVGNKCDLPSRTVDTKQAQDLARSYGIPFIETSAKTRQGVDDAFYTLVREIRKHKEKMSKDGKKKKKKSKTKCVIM
Sequence (P62937 whole entry): as the sequence (P62937 whole entry) above
Test: as above
Format: biochemical
Details: read-out: KRAS G13C FRET IC50
Experimental: as §1, §2, §3, §4, §5

Row | SMILES | pIC50
4 | CCn1c(-c2cccnc2[C@H](C)OC)c2c3cc(ccc31)-c1cc(O)cc(c1)C[C@H](NS(=O)(=O)CC1CCC3(CNC3)C1)C(=O)N1CCC[C@H](N1)C(=O)OCC(C)(C)C2 (stereo partly shown) [Compound A188] | 5.00 to 6.00

Test system: K-Ras G12C (NCI-H358 cells)
Test: Potency assay: pERK in NCI-H358 cells
Format: cell-based, human
Details: Homo sapiens, NCI-H358, 4 h, read-out: pERK EC50 (H358 KRAS G12C)
Experimental: The purpose of this assay is to measure the ability of test compounds to inhibit K-Ras in cells. […] This procedure measures a decrease in cellular pERK in response to test compounds. The procedure described below in NCI-H358 cells is applicable to K-Ras G12C.
Note: This protocol may be executed substituting other cell lines to characterize inhibitors of other RAS variants, including, for example, AsPC-1 (K-Ras G12D), Capan-1 (K-Ras G12V), or NCI-H1355 (K-Ras G13C).
NCI-H358 cells were grown and maintained using media and procedures recommended by the ATCC. On the day prior to compound addition, cells were plated in 384-well cell culture plates (40 μl/well) and grown overnight in a 37° C., 5% CO2 incubator. Test compounds were prepared in 10, 3-fold dilutions in DMSO, with a high concentration of 10 mM. On the day of assay, 40 nL of test compound was added to each well of cell culture plate using an Echo550 liquid handler (LabCyte®). Concentrations of test compound were tested in duplicate. After compound addition, cells were incubated 4 hours at 37° C., 5% CO2. Following incubation, culture medium was removed and cells were washed once with phosphate buffered saline.
In some experiments, cellular pERK level was determined using the AlphaLISA SureFire Ultra p-ERK1/2 Assay Kit (PerkinElmer). Cells were lysed in 25 μL lysis buffer, with shaking at 600 RPM at room temperature. […] After a 2-hour incubation in the dark, 5 μL donor mix was added, plate was sealed, and incubated 2 hours at room temperature. Signal was read on an Envision plate reader (PerkinElmer) using standard AlphaLISA settings. Analysis of raw data was carried out in Excel (Microsoft) and Prism (GraphPad). Signal was plotted vs. the decadal logarithm of compound concentration, and IC50 was determined by fitting a 4-parameter sigmoidal concentration response model.
In other experiments, cellular pERK was determined by In-Cell Western. […] Fixed cells were washed 4 times for 5 minutes with TBS containing 0.1% Triton X-100 (TBST) and then blocked with 100 μL Odyssey blocking buffer (LI-COR) for 60 minutes at room temperature. Primary antibody (PERK, CST-4370, Cell Signaling Technology) was diluted 1:200 in blocking buffer, and 50 μL was added to each well and incubated overnight at 4° C. Cells were washed 4 times for 5 minutes with TBST. Secondary antibody (IR-800CW rabbit, LI-COR, diluted 1:800) and DNA stain DRAQ5 (LI-COR, diluted 1:2000) were added and incubated 1-2 hours at room temperature. Cells were washed 4 times for 5 minutes with TBST. Plates were scanned on a Li—COR Odyssey CLx Imager. Analysis of raw data was carried out in Excel (Microsoft) and Prism (GraphPad). Signal was plotted vs. the decadal logarithm of compound concentration, and IC50 was determined by fitting a 4-parameter sigmoidal concentration response model.

Row | SMILES | pEC50
5 | CCn1c(-c2cccnc2[C@H](C)OC)c2c3cc(ccc31)-c1csc(n1)C[C@H](NC(=O)[C@H](C(C)C)N(C)C(=O)N1CC(S(=O)(=O)NC)C1)C(=O)N1CCC[C@H](N1)C(=O)OCC(C)(C)C2 [Compound A549] | > 5.30

Same assay, conditions: Homo sapiens; NCI-H358 cells, 4 hours; read-out: pERK EC50 (H358 KRAS G12C)

Row | SMILES | pEC50
6 | CCn1c(-c2cccnc2[C@H](C)OC)c2c3cc(ccc31)-c1csc(n1)C[C@H](NC(=O)[C@H](C(C)C)N(C)C(=O)N1CCCC13CCOCC3)C(=O)N1CCC[C@H](N1)C(=O)OCC(C)(C)C2 [Compound A520] | > 5.30
7 | CCn1c(-c2cccnc2[C@H](C)OC)c2c3cc(ccc31)-c1csc(n1)C[C@H](NC(=O)[C@H](C(C)C)N(C)C(=O)N1CC3(CCCO3)C1)C(=O)N1CCC[C@H](N1)C(=O)OCC(C)(C)C2 [Compound A522] | > 5.30
8 | CCn1c(-c2cc(N3CCN(C)CC3)cnc2[C@H](C)OC)c2c3cc(ccc31)-c1csc(n1)C[C@H](NC(=O)[C@H](C1CCCC1)N(C)C(=O)N(C)C)C(=O)N1CCC[C@H](N1)C(=O)OCC(C)(C)C2 [Compound A526] | > 5.30
9 | CCn1c(-c2cccnc2[C@H](C)OC)c2c3cc(ccc31)-c1csc(n1)C[C@H](NC(=O)[C@H](C(C)C)N(C)C(=O)N1CCCC13COC3)C(=O)N1CCC[C@H](N1)C(=O)OCC(C)(C)C2 [Compound A528] | > 5.30
10 | CCn1c(-c2cccnc2[C@H](C)OC)c2c3cc(ccc31)-c1csc(n1)C[C@H](NC(=O)[C@H](C(C)C)N(C)C(=O)N1CC3(CC(N(C)CCOC)C3)C1)C(=O)N1CCC[C@H](N1)C(=O)OCC(C)(C)C2 [Compound A532] | > 5.30
11 | CCn1c(-c2cccnc2[C@H](C)OC)c2c3cc(ccc31)-c1csc(n1)C[C@H](NC(=O)[C@H](C(C)C)N(C)C(=O)N1CC([C@H](C)NC)C1)C(=O)N1CCC[C@H](N1)C(=O)OCC(C)(C)C2 [Compound A535] | > 5.30
12 | CCn1c(-c2cccnc2[C@H](C)OC)c2c3cc(ccc31)-c1cc(O)cc(c1)C[C@H](NC(=O)[C@H](C(C)C)N(C)C(=O)[C@@H]1OCC[C@@H]1c1cccnc1)C(=O)N1CCC[C@H](N1)C(=O)OCC(C)(C)C2 [Compound A546] | > 5.30
13 | CCn1c(-c2cc(N3CCN(C)CC3)cnc2[C@H](C)OC)c2c3cc(ccc31)-c1csc(n1)C[C@H](NC(=O)[C@H](C(C)C)N(C)C(=O)N1CCOCC1)C(=O)N1CCC[C@H](N1)C(=O)OCC(C)(C)C2 [Compound A555] | > 5.30
14 | CCn1c(-c2cccnc2[C@H](C)OC)c2c3cc(ccc31)-c1csc(n1)C[C@H](NC(=O)[C@H](C(C)C)N(C)C(=O)N1CCC3(CCN(C)CC3)C1)C(=O)N1CCC[C@H](N1)C(=O)OCC(C)(C)C2 [Compound A565] | > 5.30
15 | CCn1c(-c2cccnc2[C@H](C)OC)c2c3cc(ccc31)-c1csc(n1)C[C@H](NC(=O)[C@H](C(C)C)N(C)C(=O)N1C[C@H](N)[C@@H](F)C1)C(=O)N1CCC[C@H](N1)C(=O)OCC(C)(C)C2 [Compound A567] | > 5.30
16 | CCn1c(-c2cccnc2[C@H](C)OC)c2c3cc(ccc31)-c1csc(n1)C[C@H](NC(=O)[C@H](C(C)C)N(C)C(=O)N1CCOC[C@@H]1CN(C)C)C(=O)N1CCC[C@H](N1)C(=O)OCC(C)(C)C2 [Compound A572] | > 5.30
17 | CCn1c(-c2cccnc2[C@H](C)OC)c2c3cc(ccc31)-c1csc(n1)C[C@H](NC(=O)[C@H](C(C)C)N(C)C(=O)N1CCC[C@H](CN(C)C)C1)C(=O)N1CCC[C@H](N1)C(=O)OCC(C)(C)C2 [Compound A573] | > 5.30
18 | CCn1c(-c2cccnc2[C@H](C)OC)c2c3cc(ccc31)-c1csc(n1)C[C@H](NC(=O)[C@H](CC1CC1)N(C)C(=O)N1CC(OC)C1)C(=O)N1CCC[C@H](N1)C(=O)OCC(C)(C)C2 [Compound A578] | > 5.30
19 | CCn1c(-c2cccnc2[C@H](C)OC)c2c3cc(ccc31)-c1csc(n1)C[C@H](NC(=O)[C@H](C(C)C)N(C)C(=O)N1CC(OC)C1)C(=O)N1CC[C@H](C)[C@H](N1)C(=O)OCC(C)(C)C2 [Compound A579, N-((2S)-1-(((6^3S,6^4S,4S,Z)-1^1-ethyl-1^2-(2-((S)-1-methoxyethyl)pyridin-3-yl)-6^4, 10, 10-trimethyl-5,7-dioxo-6^1,6^2,6^3,6^4,6^5,6^6-hexahydro-1^1H-8-oxa-2 (4,2)-thiazola-1 (5,3)-indola-6 (1,3)-pyridazinacycloundecaphane-4-yl)amino)-3-methyl-1-oxobutan-2-yl)-3-methoxy-N-methylazetidine-1-carboxamide] | > 5.30
20 | CCn1c(-c2cccnc2[C@H](C)OC)c2c3cc(ccc31)-c1csc(n1)C[C@H](NC(=O)[C@H](C(C)C)N(C)C(=O)N1C[C@H](OC)[C@@H](N)C1)C(=O)N1CCC[C@H](N1)C(=O)OCC(C)(C)C2 [Compound A580] | > 5.30
21 | CCn1c(-c2cccnc2[C@H](C)OC)c2c3cc(ccc31)-c1csc(n1)C[C@H](NC(=O)[C@H](C(C)C)N(C)C(=O)N1CCOC[C@@H]1c1ccccc1)C(=O)N1CCC[C@H](N1)C(=O)OCC(C)(C)C2 [Compound A604] | > 5.30
22 | CCn1c(-c2cccnc2[C@H](C)OC)c2c3cc(ccc31)-c1csc(n1)C[C@H](NC(=O)[C@H](C(C)C)N(C)C(=O)N1[C@H](C)CN(C)C[C@H]1C)C(=O)N1CCC[C@H](N1)C(=O)OCC(C)(C)C2 [Compound A610] | > 5.30
